# Test results: patent US20080045537A1, “Chemical Compounds” (priority 2004, published 2008)
# System: HIV-1 IIIB (T-tropic, CXCR4 utilizing)
# Assay: HOS HIV-1 infectivity assay
# Type: cell-based
# Conditions: Human immunodeficiency virus 1, IIIB; as determined by the infectivity assay; strain not stated in Table 2; read-out: Activity Level
# Protocol: Compounds were profiled against two HIV-1 viruses, the M-tropic (CCR5 utilizing) Ba-L strain and the T-tropic (CXCR4 utilizing) IIIB strain. Both viruses were propagated in human peripheral blood lymphocytes. Compounds were tested for there ability to block infection of the HOS cell line (expressing hCXCR4/hCCR5/hCD4/pHIV-LTR-luciferase) by either HIV-1 Ba-L or HIV-1 IIIB. Compound cytotoxicity was also examined in the absence of virus addition.
# HOS cells (expressing hCXCR4/hCCR5/hCD4/pHIV-LTR-luciferase) were harvested and diluted in Dulbeccos modified Eagles media supplemented with 2% FCS and non-essential amino acid to a concentration of 60,000 cells/ml. The cells were plated into 96-well plates (100 ul per well) and the plates were placed in a tissue culture incubator (37° C.; 5% CO2/95% air) for a period of 24 h.
# Subsequently, 50 ul of the desired drug solution (4 times the final concentration) was added to each well and the plates were returned to the tissue culture incubator (37° C.; 5% CO2/95% air) for 1 h. Following this incubation 50 ul of diluted virus was added to each well (approximately 2 million RLU per well of virus). The plates were returned to the tissue culture incubator (37° C.; 5% CO2/95% air) and were incubated for a further 96 h.
# Following this incubation the endpoint for the virally infected cultures was quantified following addition of Steady-Glo Luciferase assay system reagent (Promega, Madison, Wis.). Cell viability or non-infected cultures was measured using a CellTiter-Glo luminescent cell viability assay system (Promega, Madison, Wis.). All luminescent readouts are performed on a Topcount luminescence detector (Packard, Meridien, Conn.).
row,Compound,IC50 [nM]
1,"CN1CCN(c2cccc3nc(CN(CCCO)[C@H]4CCCc5cccnc54)[nH]c23)CC1 [Example 149, 3-{{[4-(4-Methyl-1-piperazinyl)-1H-benzimidazol-2-yl]methyl}[(8S)-5,6,7,8-tetrahydro-8-quinolinyl]amino}-1-propanol]",< 100
2,"CN1CCN(c2cccc3nc(CN(CC4CC4)[C@H]4CCCc5cccnc54)[nH]c23)CC1 [Example 140, (8S)—N-(Cyclopropylmethyl)-N-{[4-(4-methyl-1-piperazinyl)-1H-benzimidazol-2-yl]methyl}-5,6,7,8-tetrahydro-8-quinolinamine]",< 100
3,"CN(Cc1nc2c(C(=O)NC3CCNCC3)cccc2[nH]1)C1CCCc2cccnc21 (stereo not drawn) [Example 77, 2-{[Methyl(5,6,7,8-tetrahydro-8-quinolinyl)amino]methyl}-N-4-piperidinyl-1H-benzimidazole-4-carboxamide]",100 to 500
4,"CN(Cc1nc2c(CCCN3CCCC3)cccc2[nH]1)C1CCCc2cccnc21 (stereo not drawn) [Example 95, N-Methyl-N-({4-[3-(1-pyrrolidinyl)propyl]-1H-benzimidazol-2-yl}methyl)-5,6,7,8-tetrahydro-8-quinolinamine]",< 100
5,"CN(C)CCNC(=O)c1ccc2[nH]c(CN(C)C3CCCc4cccnc43)nc2c1 (stereo not drawn) [Example 52, N-[2-(Dimethylamino)ethyl]-2-{[methyl(5,6,7,8-tetrahydro-8-quinolinyl)amino]methyl}-1H-benzimidazole-5-carboxamide]",< 100
6,"CC(C)N(Cc1nc2c(N3CCN(C)CC3)cccc2[nH]1)C1CCCc2cccnc21 (stereo not drawn) [Example 112, N-(1-Methylethyl)-N-{[4-(4-methyl-1-piperazinyl)-1H-benzimidazol-2-yl]methyl}-5,6,7,8-tetrahydro-8-quinolinamine]",< 100
7,"CN(Cc1nc2c(C(=O)NCCCN3CCOCC3)cccc2[nH]1)C1CCCc2cccnc21 (stereo not drawn) [Example 74, 2-{[Methyl(5,6,7,8-tetrahydro-8-quinolinyl)amino]methyl}-N-[3-(4-morpholinyl)propyl]-1H-benzimidazole-4-carboxamide]",< 100
8,"CCN(Cc1nc2ccc(C(=O)NCCc3cncn3C)cc2[nH]1)C1CCCc2cccnc21 (stereo not drawn) [Example 43, 2-{[ethyl(5,6,7,8-tetrahydro-8-quinolinyl)amino]methyl}-N-[2-(1-methyl-1H-imidazol-5-yl)ethyl]-1H-benzimidazole-5-carboxamide]",100 to 500
9,"CC(C)N(Cc1nc2cccc(N3CCN(C)CC3)c2[nH]1)[C@H]1CCCc2cccnc21 [Example 138, (8S)—N-(1-Methylethyl)-N-{[4-(4-methyl-1-piperazinyl)-1H-benzimidazol-2-yl]methyl}-5,6,7,8-tetrahydro-8-quinolinamine]",< 100
10,"CN(C)C1CCN(C(=O)c2cccc3[nH]c(CN(C)C4CCCc5cccnc54)nc23)C1 (stereo not drawn) [Example 89, N-[(4-{[3-(Dimethylamino)-1-pyrrolidinyl]carbonyl}-1H-benzimidazol-2-yl)methyl]-N-methyl-5,6,7,8-tetrahydro-8-quinolinamine]",100 to 500
11,"CCN(Cc1nc2cc(C(=O)NCCCCCN)ccc2[nH]1)C1CCCc2cccnc21 (stereo not drawn) [Example 44, N-(5-Aminopentyl)-2-{[ethyl(5,6,7,8-tetrahydro-8-quinolinyl)amino]methyl}-1H-benzimidazole-5-carboxamide]",500 to 10000
12,"CC(=O)N1CCN(C(=O)c2cccc3[nH]c(CN(C)C4CCCc5cccnc54)nc23)CC1 (stereo not drawn) [Example 84, N-({4-[(4-Acetyl-1-piperazinyl)carbonyl]-1H-benzimidazol-2-yl}methyl)-N-methyl-5,6,7,8-tetrahydro-8-quinolinamine]",100 to 500
13,"CC(C)N1CCN(c2cccc3[nH]c(CN(C)C4CCCc5cccnc54)nc23)CC1 (stereo not drawn) [Example 111, N-Methyl-N-({4-[4-(1-methylethyl)-1piperazinyl]-1H-benzimidazol-2-yl}methyl)-5,6,7,8-tetrahydro-8-quinolinamine]",< 100
14,"CN(C)CCN(C)c1cccc2[nH]c(CN(C)C3CCCc4cccnc43)nc12 (stereo not drawn) [Example 109, [2-(Dimethylamino)ethyl]methyl(2-{[methyl(5,6,7,8-tetrahydro-8-quinolinyl)amino]methyl}-1H-benzimidazol-4-yl)amine]",< 100
15,"CN(Cc1nc2c(C(=O)NCCc3ccccn3)cccc2[nH]1)C1CCCc2cccnc21 (stereo not drawn) [Example 76, 2-{[Methyl(5,6,7,8-tetrahydro-8-quinolinyl)amino]methyl}-N-[2-(2-pyridinyl)ethyl]-1H-benzimidazole-4-carboxamide]",100 to 500
16,"CCN(Cc1nc2cc(C(=O)N(C)CCN(C)C)ccc2[nH]1)C1CCCc2cccnc21 (stereo not drawn) [Example 49, N-[2-(Dimethylamino)ethyl]-2-{[ethyl(5,6,7,8-tetrahydro-8-quinolinyl)amino]methyl}-N-methyl-1H-benzimidazole-5-carboxamide]",500 to 10000
17,"CN1CCN(c2cccc3nc(CN(C4CC4)C4CCCc5cccnc54)[nH]c23)CC1 (stereo not drawn) [Example 145, N-Cyclopropyl-N-{[4-(4-methyl-1-piperazinyl)-1H-benzimidazol-2-yl]methyl}-5,6,7,8-tetrahydro-8-quinolinamine]",< 100
18,"CN(Cc1nc2c(C(=O)N3CCN(Cc4ccccn4)CC3)cccc2[nH]1)C1CCCc2cccnc21 (stereo not drawn) [Example 68, N-Methyl-N-[(4-{[4-(2-pyridinylmethyl)-1-piperazinyl]-carbonyl}-1H-benzimidazol-2-yl)methyl]-5,6,7,8-tetrahydro-8-quinolinamine]",500 to 10000
19,"CN1CCN(c2cccc3nc(CN(C)[C@@H]4CCCc5cccnc54)[nH]c23)CC1 [Example 133A, (8R)—N-Methyl-N-{[4-(4-methyl-1-piperazinyl)-1H-benzimidazol-2-yl]methyl}-5,6,7,8-tetrahydro-8-quinolinamine]",< 100

# Other lines, results leading:
row,IC50 [nM],Compound
1,< 100,"CN1CCN(c2c(Cl)ccc3nc(CN(C)C4CCCc5cccnc54)[nH]c23)CC1 (stereo not drawn) [Example 170, N-{[5-Chloro-4-(4-methyl-1-piperazinyl)-1H-benzimidazol-2-yl]methyl}-N-methyl-5,6,7,8-tetrahydro-8-quinolinamine]"
2,< 100,"CN1CCN(c2cccc3[nH]c([C@H](COCc4ccccc4)N(C)C4CCCc5cccnc54)nc23)CC1 (stereo partly drawn) [Example 176, N-Methyl-N-{(1R)-1-[4-(4-methyl-1-piperazinyl)-1H-benzimidazol-2-yl]-2-[(phenylmethyl)oxy]ethyl}-5,6,7,8-tetrahydro-8-quinolinamine]"
3,< 100,"CN1CCN(c2cccc3nc(CN(CCO)[C@H]4CCCc5cccnc54)n(C)c23)CC1 [Example 180, 2-{{[1-Methyl-7-(4-methyl-1-piperazinyl)-1H-benzimidazol-2-yl]methyl}[(8S)-5,6,7,8-tetrahydro-8-quinolinyl]amino}ethanol]"
4,< 100,"CN(Cc1nc2cccc(N3CCNCC3)c2n1C)[C@H]1CCCc2cccnc21 [Example 159, (8S)—N-methyl-N-{[1-methyl-7-(1-piperazinyl)-1H-benzimidazol-2-yl]methyl}-5,6,7,8-tetrahydro-8-quinolinamine]"
5,< 100,"CN1CCN(c2cccc3nc(CN(CC4CC4)C4CCCc5cccnc54)n(C)c23)CC1 (stereo not drawn) [Example 156, N-(Cyclopropylmethyl)-N-{[1-methyl-7-(4-methyl-1-piperazinyl)-1H-benzimidazol-2-yl]methyl}-5,6,7,8-tetrahydro-8-quinolinamine]"
6,< 100,"CCn1c(CN(C)[C@H]2CCCc3cccnc32)nc2cccc(N3CCN(C)CC3)c21 [Example 164, (8S)—N-{[1-ethyl-7-(4-methyl-1-piperazinyl)-1H-benzimidazol-2-yl]methyl}-N-methyl-5,6,7,8-tetrahydro-8-quinolinamine]"
7,< 100,"CN1CCN(c2cccc3nc(CN(C)C4CCc5cccnc54)[nH]c23)CC1 (stereo not drawn) [Example 183, N-Methyl-N-{[4-(4-methyl-1-piperazinyl)-1H-benzimidazol-2-yl]methyl}-6,7-dihydro-5H-cyclopenta[b]pyridin-7-amine]"
8,< 100,"CCN(Cc1nc2cccc(N3CCN(C)CC3)c2n1CC)[C@H]1CCCc2cccnc21 [Example 166, (8S)—N-Ethyl-N-{[1-ethyl-7-(4-methyl-1-piperazinyl)-1H-benzimidazol-2-yl]methyl}-5,6,7,8-tetrahydro-8-quinolinamine]"
9,100 to 500,"CN1CCN(c2cccc3c2nc(CN(C)C2CCCc4cccnc42)n3C)CC1 (stereo not drawn) [Example 152, N-Methyl-N-{[1-methyl-4-(4-methyl-1-piperazinyl)-1H-benzimidazol-2-yl]methyl}-5,6,7,8-tetrahydro-8-quinolinamine]"
10,< 100,"CN1CCN(c2cccc3[nH]c([C@@H](COCc4ccccc4)N(C)C4CCCc5cccnc54)nc23)CC1 (stereo partly drawn) [Example 177, N-Methyl-N-{(1S)-1-[4-(4-methyl-1-piperazinyl)-1H-benzimidazol-2-yl]-2-[(phenylmethyl)oxy]ethyl}-5,6,7,8-tetrahydro-8-quinolinamine]"
11,< 100,"CN1CCN(c2cccc3nc(CNC4CCCCc5cccnc54)[nH]c23)CC1 (stereo not drawn) [Example 184, N-{[4-(4-methyl-1-piperazinyl)-1H-benzimidazol-2-yl]methyl}-6,7,8,9-tetrahydro-5H-cyclohepta[b]pyridin-9-amine]"
